{"source": "patent US10201523B2", "about": "“Use of wilforlide A for overcoming chemotherapy resistance” (WESTERN UNIVERSITY OF HEALTH SCIENCES, priority 2013, dated 2019)", "key": {"DU145-TxR": {"test_system": "DU145-TxR", "assay": "SRB cell viability assay, docetaxel with/without wilforlide A pretreatment", "format": "cell-based", "settings": "DU145-TxR; for viability at 1 pM / viability at 0.0001 µM / viability at 0.000333 µM / viability at 0.001 µM / viability at 0.00333 µM / viability at 0.01 µM / viability at 0.0333 µM / viability at 0.1 µM: 72 h; for A at 565 nm: background = 0.046", "description": "FIG. 4 summarizes the data of Tables 18 and 19 in a graphical format."}, "DU-145": {"test_system": "DU-145", "assay": "SRB cell viability assay, docetaxel IC50 with/without wilforlide A pretreatment", "format": "cell-based", "settings": "for IC50: Homo sapiens"}, "[1]": {"settings": "no wilforlide A pre-Tx, docetaxel 0.001 nM 72 h"}, "[2]": {"settings": "no wilforlide A pre-Tx, docetaxel 0.1 nM 72 h"}, "[3]": {"settings": "no wilforlide A pre-Tx, docetaxel 0.333 nM 72 h"}, "[4]": {"settings": "no wilforlide A pre-Tx, docetaxel 1 nM 72 h"}, "[5]": {"settings": "no wilforlide A pre-Tx, docetaxel 3.33 nM 72 h"}, "[6]": {"settings": "no wilforlide A pre-Tx, docetaxel 10 nM 72 h"}, "[7]": {"settings": "no wilforlide A pre-Tx, docetaxel 33.3 nM 72 h"}, "[8]": {"settings": "no wilforlide A pre-Tx, docetaxel 100 nM 72 h"}, "[9]": {"settings": "wilforlide A 2.5 μg/ml pre-Tx, docetaxel 0.001 nM 72 h"}, "[10]": {"settings": "wilforlide A 2.5 μg/ml pre-Tx, docetaxel 0.1 nM 72 h"}, "[11]": {"settings": "wilforlide A 2.5 μg/ml pre-Tx, docetaxel 0.333 nM 72 h"}, "[12]": {"settings": "wilforlide A 2.5 μg/ml pre-Tx, docetaxel 1 nM 72 h"}, "[13]": {"settings": "wilforlide A 2.5 μg/ml pre-Tx, docetaxel 3.33 nM 72 h"}, "[14]": {"settings": "wilforlide A 2.5 μg/ml pre-Tx, docetaxel 10 nM 72 h"}, "[15]": {"settings": "wilforlide A 2.5 μg/ml pre-Tx, docetaxel 33.3 nM 72 h"}, "[16]": {"settings": "wilforlide A 2.5 μg/ml pre-Tx, docetaxel 100 nM 72 h"}}, "note": "Where “and” joins values, the source holds several entries; their conditions need not be identical. Identical values can stand only once. Like-named read-outs stand apart in the source and are kept apart here."}
{"smiles": "CC(=O)O[C@@]12CO[C@@H]1C[C@H](O)[C@@]1(C)C(=O)[C@H](O)C3=C(C)[C@@H](OC(=O)[C@H](O)[C@@H](NC(=O)OC(C)(C)C)c4ccccc4)C[C@@](O)([C@@H](OC(=O)c4ccccc4)[C@H]21)C3(C)C", "note": "[docetaxel]", "values": [{"measurement": "viability at 1 pM", "setting": "DU145-TxR; [1]", "result": 100, "unit": "%"}, {"measurement": "viability at 0.0001 µM", "setting": "DU145-TxR; [2]", "result": 104, "unit": "%"}, {"measurement": "viability at 0.000333 µM", "setting": "DU145-TxR; [3]", "result": 99, "unit": "%"}, {"measurement": "viability at 0.001 µM", "setting": "DU145-TxR; [4]", "result": 98.2, "unit": "%"}, {"measurement": "viability at 0.00333 µM", "setting": "DU145-TxR; [5]", "result": 98.5, "unit": "%"}, {"measurement": "viability at 0.01 µM", "setting": "DU145-TxR; [6]", "result": 101, "unit": "%"}, {"measurement": "viability at 0.0333 µM", "setting": "DU145-TxR; [7]", "result": 99.2, "unit": "%"}, {"measurement": "viability at 0.1 µM", "setting": "DU145-TxR; [8]", "result": 97.4, "unit": "%"}, {"measurement": "viability at 1 pM", "setting": "DU145-TxR; [9]", "result": 100, "unit": "%"}, {"measurement": "viability at 0.0001 µM", "setting": "DU145-TxR; [10]", "result": 104, "unit": "%"}, {"measurement": "viability at 0.000333 µM", "setting": "DU145-TxR; [11]", "result": 102, "unit": "%"}, {"measurement": "viability at 0.001 µM", "setting": "DU145-TxR; [12]", "result": 104, "unit": "%"}, {"measurement": "viability at 0.00333 µM", "setting": "DU145-TxR; [13]", "result": 98.4, "unit": "%"}, {"measurement": "viability at 0.01 µM", "setting": "DU145-TxR; [14]", "result": 102, "unit": "%"}, {"measurement": "viability at 0.0333 µM", "setting": "DU145-TxR; [15]", "result": 94.1, "unit": "%"}, {"measurement": "viability at 0.1 µM", "setting": "DU145-TxR; [16]", "result": 44.7, "unit": "%"}, {"measurement": "mean A", "setting": "DU145-TxR; [1]", "result": 2.257}, {"measurement": "A at 565 nm", "setting": "DU145-TxR; [1]", "result": "2.285 and 2.199 and 2.289"}, {"measurement": "mean A", "setting": "DU145-TxR; [2]", "result": 2.346}, {"measurement": "A at 565 nm", "setting": "DU145-TxR; [2]", "result": "2.354 and 2.413 and 2.272"}, {"measurement": "mean A", "setting": "DU145-TxR; [3]", "result": 2.235}, {"measurement": "A at 565 nm", "setting": "DU145-TxR; [3]", "result": "2.281 and 2.251 and 2.175"}, {"measurement": "mean A", "setting": "DU145-TxR; [4]", "result": 2.216}, {"measurement": "A at 565 nm", "setting": "DU145-TxR; [4]", "result": "2.279 and 2.233 and 2.137"}, {"measurement": "mean A", "setting": "DU145-TxR; [5]", "result": 2.224}, {"measurement": "A at 565 nm", "setting": "DU145-TxR; [5]", "result": "2.207 and 2.230 and 2.236"}, {"measurement": "mean A", "setting": "DU145-TxR; [6]", "result": 2.272}, {"measurement": "A at 565 nm", "setting": "DU145-TxR; [6]", "result": "2.254 and 2.359 and 2.203"}, {"measurement": "mean A", "setting": "DU145-TxR; [7]", "result": 2.239}, {"measurement": "A at 565 nm", "setting": "DU145-TxR; [7]", "result": "2.145 and 2.270 and 2.303"}, {"measurement": "mean A", "setting": "DU145-TxR; [8]", "result": 2.198}, {"measurement": "A at 565 nm", "setting": "DU145-TxR; [8]", "result": "2.153 and 2.224 and 2.217"}, {"measurement": "mean A", "setting": "DU145-TxR; [9]", "result": 2.137}, {"measurement": "A at 565 nm", "setting": "DU145-TxR; [9]", "result": "2.092 and 2.151 and 2.170"}, {"measurement": "mean A", "setting": "DU145-TxR; [10]", "result": 2.220}, {"measurement": "A at 565 nm", "setting": "DU145-TxR; [10]", "result": "2.248 and 2.263 and 2.151"}, {"measurement": "mean A", "setting": "DU145-TxR; [11]", "result": 2.169}, {"measurement": "A at 565 nm", "setting": "DU145-TxR; [11]", "result": "2.187 and 2.102 and 2.218"}, {"measurement": "mean A", "setting": "DU145-TxR; [12]", "result": 2.217}, {"measurement": "A at 565 nm", "setting": "DU145-TxR; [12]", "result": "2.177 and 2.229 and 2.246"}, {"measurement": "mean A", "setting": "DU145-TxR; [13]", "result": 2.103}, {"measurement": "A at 565 nm", "setting": "DU145-TxR; [13]", "result": "2.064 and 2.090 and 2.155"}, {"measurement": "mean A", "setting": "DU145-TxR; [14]", "result": 2.176}, {"measurement": "A at 565 nm", "setting": "DU145-TxR; [14]", "result": "2.171 and 2.204 and 2.155"}, {"measurement": "mean A", "setting": "DU145-TxR; [15]", "result": 2.011}, {"measurement": "A at 565 nm", "setting": "DU145-TxR; [15]", "result": "2.086 and 2.018 and 1.930"}, {"measurement": "mean A", "setting": "DU145-TxR; [16]", "result": 0.956}, {"measurement": "A at 565 nm", "setting": "DU145-TxR; [16]", "result": "0.987 and 0.926 and 0.957"}, {"measurement": "IC50", "setting": "DU-145; 72 h, read-out: Drug IC50 no pre-Tx", "result": "> 100", "unit": "nM"}, {"measurement": "IC50", "setting": "DU-145; wilforlide A 2.5 μg/ml pre-Tx, read-out: Drug IC50 after wilforlide A pre-Tx", "result": 42.5, "unit": "nM"}, {"measurement": "CE", "setting": "DU-145; chemosensitization effect, wilforlide A 2.5 μg/ml pre-Tx", "result": ">2.35"}]}
